Source: patent publication US7915268B2, “8-substituted 2-(benzimidazolyl)purine derivatives for immunosuppression” (Wyeth LLC, priority 2006, dated 2011)

target: T1, Jak3 (Homo sapiens, UniProt P52333); test: Jak3 Kinase Assay (HTRF, GST-Jak3 catalytic domain); type: biochemical; details: 1 μM ATP, 60-min incubation, read-out: Jak 3 (Converted)
T1 construct: catalytic domain of Jak3 (508aa to 1124aa); made in house; host or cells: Sf9 insect cells (baculovirus, pFastBac 1)
T1 sequence (P52333 508-1124): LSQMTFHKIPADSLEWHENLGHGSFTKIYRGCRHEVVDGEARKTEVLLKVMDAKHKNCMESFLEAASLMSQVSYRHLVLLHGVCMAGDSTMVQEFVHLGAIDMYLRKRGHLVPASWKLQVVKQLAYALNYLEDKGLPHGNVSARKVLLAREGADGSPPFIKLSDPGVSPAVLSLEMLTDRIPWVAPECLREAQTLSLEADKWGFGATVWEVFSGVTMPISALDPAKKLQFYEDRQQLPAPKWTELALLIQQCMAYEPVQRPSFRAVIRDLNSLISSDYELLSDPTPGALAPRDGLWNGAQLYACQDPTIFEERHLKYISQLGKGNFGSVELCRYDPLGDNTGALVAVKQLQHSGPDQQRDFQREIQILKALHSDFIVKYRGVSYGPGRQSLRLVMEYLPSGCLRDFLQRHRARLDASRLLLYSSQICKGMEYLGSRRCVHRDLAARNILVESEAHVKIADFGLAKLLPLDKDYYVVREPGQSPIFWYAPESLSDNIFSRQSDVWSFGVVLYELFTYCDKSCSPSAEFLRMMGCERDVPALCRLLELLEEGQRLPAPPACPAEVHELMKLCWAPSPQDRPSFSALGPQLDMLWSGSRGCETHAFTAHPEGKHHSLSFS
Description: Human Jak3 cDNA was amplified by PCR. A fragment encoding the catalytic domain of Jak3 (508aa to 1124aa) was ligated with GST at 5′ end. This fused GST-Jak3 DNA fragment was cloned into the EcoRI site of the donor plasmid pFastBac 1 (Life Technologies #10359-016). The transformation, transposition, and transfection of insect cells (Sf9) were performed according to the manufacture's instructions. The cell lysate containing recombinant GST-Jak3 was used in the kinase assay. Anti-GST antibody (10 μg/ml, Sigma #G1417) was coated onto a 384-well plate at 4° C. overnight. Cell lysate containing GST-Jak3 (1:100 dilution) was added to the anti-GST coated plates, and GST-Jak3 was captured by immobilized anti-GST antibody. Testing compounds and substrate mix (50 mM HEPES, pH 7, 0.5 mM Na3VO4, 25 mM MgCl2, 1 mM DTT, 0.005% BSA, 1 μM ATP, and 4.5 μg/ml biotinyl poly-Glu, Ala, Tyr) were added to the plate to initiate the reaction. After a 60-min incubation, the reaction was stopped by 4 mM EDTA, and phosphorylation of biotinyl poly-Glu, Ala, Tyr was detected using 17 μg/ml Cy5-streptavidin (Amersham, #PA92005) and 2.7 μg/ml Europium-conjugated anti-phosphotyrosine antibody (PerkinElmer #AD0069) using homogeneous time-resolved fluorescence (HTRF) technology.

SMILES | IC50
Fc1ccc2ncn(-c3ncc4nc(-c5ccccn5)n(C5CCOCC5)c4n3)c2c1 [Example 66] | 0.1 to 1 µM
Fc1cccc(-c2nc3cnc(-n4cnc5ccc(F)cc54)nc3n2C2CCOCC2)c1 [Example 67] | 0.1 to 1 µM
Fc1ccc(-c2nc3cnc(-n4cnc5ccc(F)cc54)nc3n2C2CCOCC2)nc1 [Example 68] | 0.1 to 1 µM
Fc1ccc2ncn(-c3ncc4nc(-c5ccncn5)n(C5CCOCC5)c4n3)c2c1 [Example 69] | < 0.1 µM
Fc1ccc2ncn(-c3ncc4nc(-c5ccoc5)n(C5CCOCC5)c4n3)c2c1 [Example 70] | < 0.1 µM
Oc1cccc(-c2nc3cnc(-n4cnc5ccc(F)cc54)nc3n2C2CCOCC2)c1 [Example 71] | < 0.1 µM
Cc1nc2cnc(-n3cnc4ccc(F)cc43)nc2n1C1CCOCC1 [Example 72] | < 0.1 µM
CO[C@H]1CC[C@H](n2c(C)nc3cnc(-n4cnc5ccc(Cl)cc54)nc32)CC1 [Example 73] | 0.1 to 1 µM
Cc1nc2cnc(-n3cnc4ccc(Cl)cc43)nc2n1C1CCOCC1 [Example 74] | < 0.1 µM
Cc1nc2cnc(-n3cnc4ccc(OC(F)(F)F)cc43)nc2n1C1CCOCC1 [Example 76, 8-Methyl-9-(tetrahydro-2H-pyran-4-yl)-2-(6-(trifluoromethoxy)-1H-benzo[d]imidazol-1-yl)-9H-purine] | < 0.1 µM
Fc1ccc2ncn(-c3ncc4c(n3)C([C@@H]3CCOc5ccccc53)C(CCl)=N4)c2c1 (some centres unmarked) [Example 77] | < 0.1 µM
COCCCn1c(C)nc2cnc(-n3cnc4ccccc43)nc21 [Example 84] | > 1 µM
COCCCn1c(-c2ccccc2)nc2cnc(-n3cnc4ccccc43)nc21 [Example 85] | > 1 µM
[O-][n+]1ccc(-c2nc3cnc(-n4cnc5ccc(F)cc54)nc3n2C2CCOCC2)cc1 [Example 88] | 0.1 to 1 µM
c1ccc(Cn2c(-c3ccccc3)nc3cnc(-n4cnc5ccccc54)nc32)cc1 [Example 89] | > 1 µM
Cc1nc2cnc(-n3cnc4ccc(Cl)cc43)nc2n1[C@H](C)C(=O)NCC(F)(F)F [Example 92, (2R)-2-(2-(6-chloro-1H-benzo[d]imidazol-1-yl)-8-methyl-9H-purin-9-yl)-N-(2,2,2-trifluoroethyl)propanamide] | < 0.1 µM
N#Cc1ccc2ncn(-c3ncc4nc(NCC5CCCO5)n(C5CCOCC5)c4n3)c2c1 (centres unmarked) [Example 93] | < 0.1 µM
N#Cc1ccc2ncn(-c3ncc4nc(NCCN5CCCCC5)n(C5CCOCC5)c4n3)c2c1 [Example 94] | < 0.1 µM
N#Cc1ccc2ncn(-c3ncc4nc(NCCN5CCOCC5)n(C5CCOCC5)c4n3)c2c1 [Example 95] | < 0.1 µM
CCNc1nc2cnc(-n3cnc4ccc(C#N)cc43)nc2n1C1CCOCC1 [Example 96, 3-(8-(ethylamino)-9-(tetrahydro-2H-pyran-4-yl)-9H-purin-2-yl)-3H-benzo[d]imidazole-5-carbonitrile] | < 0.1 µM
Cc1ccc([C@@H](C)n2c(C)nc3cnc(-n4cnc5ccc(C#N)cc54)nc32)o1 [Example 99] | 0.1 to 1 µM
N#Cc1ccc2ncn(-c3ncc4nc(Cl)n(C5CCOCC5)c4n3)c2c1 [Example 101] | < 0.1 µM
N#Cc1ccc2ncn(-c3ncc4nc(Nc5ccc(S(N)(=O)=O)cc5)n(C5CCOCC5)c4n3)c2c1 [Example 105, 4-(2-(6-cyano-1H-benzo[d]imidazol-1-yl)-9-(tetrahydro-2H-pyran-4-yl)-9H-purin-8-ylamino)benzenesulfonamide] | < 0.1 µM
N#Cc1ccc2ncn(-c3ncc4nc(Nc5cccnc5)n(C5CCOCC5)c4n3)c2c1 [Example 107] | < 0.1 µM
COc1cccc(Nc2nc3cnc(-n4cnc5ccc(C#N)cc54)nc3n2C2CCOCC2)c1 [Example 108] | < 0.1 µM
N#Cc1cccc(Nc2nc3cnc(-n4cnc5ccc(Cl)cc54)nc3n2C2CCOCC2)c1 [Example 110] | > 1 µM

Continued, values first:

IC50 | SMILES
0.1 to 1 µM | Cc1nc2cnc(-n3cnc4ccc(OC(F)(F)F)cc43)nc2n1[C@@H]1CCOc2c(F)cccc21 [Example 75]
< 0.1 µM | Cc1nc2cnc(-n3cnc4ccc(F)cc43)nc2n1[C@@H]1CCOc2ccccc21 [Example 78]
< 0.1 µM | CCc1nc2cnc(-n3cnc4ccc(F)cc43)nc2n1[C@@H]1CCOc2ccccc21 [Example 79]
0.1 to 1 µM | Cc1nc2cnc(-n3cnc4ccccc43)nc2n1C1COCc2c(F)cccc21 (centres unmarked) [Example 80]
< 0.1 µM | Cc1nc2cnc(-n3cnc4ccccc43)nc2n1[C@@H]1CCOc2c(F)cccc21 [Example 81, 2-(1H-benzo[d]imidazol-1-yl)-9-((R)-8-fluorochroman-4-yl)-8-methyl-9H-purine]
> 1 µM | Cc1nc2cnc(-n3cnc4ccccc43)nc2n1Cc1ccccc1 [Example 82]
< 0.1 µM | Cc1nc2cnc(-n3cnc4ccccc43)nc2n1C1CCOCC1 [Example 83]
> 1 µM | Fc1cccc2c1COCC2n1c(-c2ccccc2)nc2cnc(-n3cnc4ccccc43)nc21 (centres unmarked) [Example 86, 2-(1H-benzo[d]imidazol-1-yl)-9-(8-fluoroisochroman-4-yl)-8-phenyl-9H-purine]
0.1 to 1 µM | Fc1cccc2c1COC[C@H]2n1c(-c2ccccc2)nc2cnc(-n3cnc4ccccc43)nc21 [Example 87]
0.1 to 1 µM | Fc1ccc2ncn(-c3ncc4nc(Cc5ccccc5)n(C5CCOCC5)c4n3)c2c1 [Example 90, 8-Benzyl-2-(6-fluoro-1H-benzo[d]imidazol-1-yl)-9-(tetrahydro-2H-pyran-4-yl)-9H-purine]
0.1 to 1 µM | c1ccc(-c2nc3cnc(-n4cnc5ccccc54)nc3n2C2CCOCC2)cc1 [Example 91]
< 0.1 µM | CCNc1nc2cnc(-n3cnc4ccc(C#N)cc43)nc2n1[C@@H]1CCOc2ccccc21 [Example 97]
< 0.1 µM | N#Cc1ccc2ncn(-c3ncc4nc(NC5CCCC5)n([C@@H]5CCOc6ccccc65)c4n3)c2c1 [Example 98]
< 0.1 µM | Cc1nc2cnc(-n3cnc4ccc(C#N)cc43)nc2n1[C@@H]1CC[C@@H](O)c2ccccc21 [Example 100, 3-(9-((1R,4R)-4-Hydroxy-1,2,3,4-tetrahydronaphthalen-1-yl)-8-methyl-9H-purin-2-yl)-3H-benzo[d]imidazole-5-carbonitrile]
< 0.1 µM | Fc1ccc2ncn(-c3ncc4nc(Cl)n([C@@H]5CCOc6c(F)cccc65)c4n3)c2c1 [Example 102, 8-chloro-2-(6-fluoro-1H-benzo[d]imidazol-1-yl)-9-((R)-8-fluorochroman-4-yl)-9H-purine]
< 0.1 µM | Fc1ccc2ncn(-c3ncc4nc(-c5ccc(F)nc5)n([C@@H]5CCOc6c(F)cccc65)c4n3)c2c1 [Example 103, 2-(6-fluoro-1H-benzo[d]imidazol-1-yl)-9-((R)-8-fluorochroman-4-yl)-8-(6-fluoropyridin-3-yl)-9H-purine]
< 0.1 µM | N#Cc1ccc2ncn(-c3ncc4nc(Nc5cccnc5)n([C@@H]5CCOc6ccccc65)c4n3)c2c1 [Example 104]
0.1 to 1 µM | N#Cc1ccc2ncn(-c3ncc4nc(Nc5cccc(C(F)(F)F)c5)n([C@@H]5CCOc6ccccc65)c4n3)c2c1 [Example 106]
< 0.1 µM | N#Cc1ccc2ncn(-c3ncc4nc(Nc5ccccc5F)n(C5CCOCC5)c4n3)c2c1 [Example 109]
< 0.1 µM | CSc1nc2cnc(-n3cnc4ccc(F)cc43)nc2n1[C@@H]1CCOc2c(F)cccc21 [Example 111]
< 0.1 µM | O[C@@H]1CC[C@@H](n2c(-c3cncnc3)nc3cnc(-n4cnc5ccc(F)cc54)nc32)c2ccccc21 [Example 112, (1R,4R)-4-(2-(6-Fluoro-1H-benzo[d]imidazol-1-yl)-8-(pyrimidin-5-yl)-9H-purin-9-yl)-1,2,3,4-tetrahydronaphthalen-1-ol]
